In patent US20240277658A1, “NLRP3 ACTIVATORS FOR USE IN THE TREATMENT OF INFECTIOUS DISEASES OR CANCER BY ACTIVATING NLRP3 INFLAMMASOME” (ALBERT-LUDWIGS-UNIVERSITÄT FREIBURG, priority 2020, published 2024):
Several values for one entry are separate records, joined by “and”; a condition that tells them apart may be missing. Identical values can stand only once. Like-named read-outs stand apart in the source and are kept apart here.

How the values were obtained:
[1] = system: BMDCs; experiment: LDH release (lytic cell death, pyroptosis) from LPS-primed BMDCs; assay type: cell-based, mouse; conditions: for Average (% positive control): LDH release; for cytotoxicity at 50 µM / cytotoxicity at 18.75 µM / cytotoxicity at 37.5 µM / cytotoxicity at 75 µM / cytotoxicity at 20 µM / cytotoxicity at 40 µM / cytotoxicity at 80 µM: Mus musculus, BMDC; for cytotoxicity at 50 µM: LPS-primed BMDCs
Protocol: (§1) This was tested in cell culture in several different in vitro assays classically used to investigate inflammasome activation. These include measuring inflammasome-dependent lytic cell death (pyroptosis) by detecting release of the cytosolic enzyme lactate dehydrogenase (LDH) using a commercial colorimetric assay and release of proinflammatory cytokines like IL-1β by enzyme-linked immunosorbent assay (ELISA), analyzing cleavage and activation of caspase-1 and IL-1β by immunoblotting and immunofluorescence imaging of ASC speck formation. Lytic cell death was determined via LDH release. Assay results for compounds are illustrated in the Tables below, wherein the concentration of the compounds tested had been 50 μM or as indicated in the table, and the concentration of the known activators has been tested with 5 μM of nigericin, 100 μM of each R837 and CL097. For classification of the activity of a given molecule, release of IL-1β was quantified as % of IL-1% of a respective control activator used for the experiment (highlighted in tables with bold letters). The compounds listes in Table 1 were classified into 4 groups depending on their ability to induce the NLRP3 inflammasome activation, assessed by % IL-1β release as compared to the positive control.
(§2) Mouse bone marrow-derived dendritic cells (BMDCs) were isolated from femurs and tibias previously described (Gross, Olaf, 2012, “Measuring the inflammasome”, Methods in molecular biology, Clifton, N.J., 844, pp. 199-222.). In brief, tibias and femurs were carefully removed and put to sterile 70% ethanol for 1 minute. Using a 22-G needle attached to a 20 ml-syringe filled with sterile flushing medium, the bone marrow was pressed through the mesh of a […] cell strainer. The cells were spun down by centrifugation at 400×g, 4° C. for 5 minutes and red blood cells lysed by resuspension and incubation for 5 minutes at room temperature in RBC lysis buffer. 9 ml of flushing medium were added and cells were again spun down by centrifugation at 400×g, 4° C. for 5 minutes. Cells were then resuspended in BMDC medium (RPMI, 10% fetal bovine serum, 1% penicillin-streptomycin100 U/ml, 20 ng/ml recombinant murine GM-CSF), counted and plated at a density of 0.5×10^6 cells ml^−1 in 10 ml medium and incubated at 37° C., 5% CO2 in a humidified incubator. After 2 days, 10 ml of fresh medium were added to the cells and after 4 days, the medium was fully exchanged to 20 ml of fresh medium. The cells were allowed to differentiate for 6 to 8 days before usage.
(§3) For canonical inflammasome activation BMDCs after 7-9 days of differentiation were harvested and counted with a Neubauer Chamber (Hecht Assistant) and the concentration was set to 1 Mio cells ml^−1. 100 μl cell suspension per well were seeded in 96-well plates. The cells were primed with 50 ng ml^−1 E. coli K12 ultra-pure LPS for 3 hours and subsequently treated with canonical inflammasome activators or experimental compounds for 3 hours if not indicated differently (incubation time FIG. 4D, 5, 7, 8, 11, 13-18: 3 h, FIG. 12: 4 h). Concentrations of the stimuli were as follows if not indicated differently: 5 μM nigericin, 100 μM imiquimod (also known as R837), 100 μM CL097, 100 μM R848, […] poly(dA:dT), 300 μg ml^−1 MSU. If an inhibitor was used before stimuli treatment, the inhibitor was added after 2.5 hours of priming and it was incubated for 30 minutes before inflammasome activation. Inhibitors were used as follows: 3 μM MCC950, 45 mM KCl, 30 μM ebselen (2-Phenyl-1,2-benzoselenazol-3-one), 5 μM cytochalasin D (see FIGS. 8, 11, 12 and 17).
(§4) All inflammasome stimulations were performed in three technical replicates for each condition. […]

[2] = biological target: T1, NLRP3 inflammasome (Mus musculus, UniProt Q8R4B8); experiment: IL-1β release from LPS-primed BMDCs (ELISA) as readout of NLRP3 inflammasome activation; assay type: cell-based
T1 construct: endogenous in cells; host or cells: primary mouse bone marrow-derived dendritic cells (BMDCs), LPS-primed
T1 sequence (Q8R4B8 whole entry): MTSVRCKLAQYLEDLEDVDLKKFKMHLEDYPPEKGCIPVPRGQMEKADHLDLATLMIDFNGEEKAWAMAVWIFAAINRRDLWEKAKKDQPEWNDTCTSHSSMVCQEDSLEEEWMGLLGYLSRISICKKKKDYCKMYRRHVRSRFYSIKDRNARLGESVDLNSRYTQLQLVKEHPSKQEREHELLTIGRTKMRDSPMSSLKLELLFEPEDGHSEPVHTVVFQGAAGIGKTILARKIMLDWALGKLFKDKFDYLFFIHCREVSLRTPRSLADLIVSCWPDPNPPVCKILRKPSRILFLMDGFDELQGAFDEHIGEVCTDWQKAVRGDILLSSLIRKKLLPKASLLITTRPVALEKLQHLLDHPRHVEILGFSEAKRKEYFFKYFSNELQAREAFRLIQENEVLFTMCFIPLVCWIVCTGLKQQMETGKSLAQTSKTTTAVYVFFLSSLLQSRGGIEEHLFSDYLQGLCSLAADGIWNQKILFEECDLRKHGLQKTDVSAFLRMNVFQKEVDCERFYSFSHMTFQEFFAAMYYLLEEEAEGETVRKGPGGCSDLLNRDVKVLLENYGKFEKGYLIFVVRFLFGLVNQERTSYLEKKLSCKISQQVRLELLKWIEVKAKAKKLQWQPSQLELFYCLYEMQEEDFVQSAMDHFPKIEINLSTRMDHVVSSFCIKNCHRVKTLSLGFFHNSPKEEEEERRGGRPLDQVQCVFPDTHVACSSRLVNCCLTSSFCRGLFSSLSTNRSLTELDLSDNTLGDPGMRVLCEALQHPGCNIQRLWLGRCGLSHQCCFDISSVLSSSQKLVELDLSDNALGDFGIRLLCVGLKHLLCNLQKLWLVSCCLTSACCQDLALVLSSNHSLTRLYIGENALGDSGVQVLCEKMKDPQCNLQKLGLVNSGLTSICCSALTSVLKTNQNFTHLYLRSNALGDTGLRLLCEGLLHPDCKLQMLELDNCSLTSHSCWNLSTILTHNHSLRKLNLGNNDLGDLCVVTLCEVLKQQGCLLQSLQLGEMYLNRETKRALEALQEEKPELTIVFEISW
Protocol: as §1, §2, §3, §4

[3] = compound 50 μM, positive control nigericin 5 μM
[4] = compound 50 μM, read-out: Average LDH release (% of max.)
[5] = single replicates, compound 50 μM, read-out: LDH release (% of max.)
[6] = IL-1β release, compound 50 μM, positive control nigericin 5 μM
[7] = compound 50 μM, LPS-primed BMDCs
[8] = single replicates, compound 50 μM, LPS-primed BMDCs

Average (% positive control) [2, 6] | Average IL-1β [2, 7] | Compound | Average (% positive control) [1, 3] | cytotoxicity at 50 µM [1, 4] | cytotoxicity at 50 µM [1, 5] | IL-1β [2, 8] | further results
1.025 % positive control | 0.073 ng/mL | COc1cccc(NC(=O)N(C)Cc2nc(-c3cccnc3)no2)c1 [L01.136, 1-(3-methoxyphenyl)-3-methyl-3-{[3-(pyridin-3-yl)-1,2,4-oxadiazol-5-yl]methyl}urea] | 9.465 % positive control | 6.92% | 6.95% | 0.064 ng/mL and 0.073 ng/mL and 0.083 ng/mL | –
0.988 % positive control | 0.071 ng/mL | COc1ccc(NC(=O)NCc2nc(Cc3ccccc3)no2)cc1 [L01.125, 3-[(3-benzyl-1,2,4-oxadiazol-5-yl)methyl]-1-(4-methoxyphenyl)-urea] | 9.397 % positive control | 6.87% | 7.72% | 0.080 ng/mL and 0.071 ng/mL and 0.061 ng/mL | –

The next lines start with the compound.

Compound | Average (% positive control) [2, 6] | Average IL-1β [2, 7] | Average (% positive control) [1, 3] | cytotoxicity at 50 µM [1, 4] | cytotoxicity at 50 µM [1, 5] | IL-1β [2, 8] | further results
O=C(Nc1ccccc1)Nc1ccc(NC2CCOCC2)cc1 [L01.065, 1-{4-[(oxan-4-l)amino]-phenyl}-3-phenylurea] | 0.928 % positive control | 0.067 ng/mL | 12.397 % positive control | 9.07% | 8.41% | 0.052 ng/mL and 0.070 ng/mL and 0.077 ng/mL | –
CC(C)C(=O)Nc1cccc(NC(=O)Nc2ccccc2)c1 [L01.023, 2-methyl-N-{3-[(phenyl-carbamoyl)amino]phen-yl}propanamide] | 1.021 % positive control | 0.073 ng/mL | 7.611 % positive control | 5.57% | 5.1% | 0.065 ng/mL and 0.075 ng/mL and 0.080 ng/mL | –
COc1ccc(NC(=O)Nc2ccc(-c3noc(CC4CCCN(Cc5cccc(F)c5C)C4)n3)cc2)cc1 (stereo not drawn) [PM07, 1-[4-(5-((1-(3-fluoro-2-methylbenzyl)piperidin-3-yl)methyl)-1,2,4-oxadiazol-3-yl)phenyl]-3-[(4-methoxy)phenyl] urea] | – | – | – | – | – | – | cytotoxicity at 18.75 µM ([1]; section 1.4, 18.75 μM, read-out: Average LDH release (% of max.)): 51%; cytotoxicity at 37.5 µM ([1]; section 1.4, 37.5 μM, read-out: Average LDH release (% of max.)): 69.3%; cytotoxicity at 75 µM ([1]; section 1.4, 75 μM, read-out: Average LDH release (% of max.)): 85.6%; cytotoxicity at 18.75 µM ([1]; section 1.4, single replicates, 18.75 μM, read-out: LDH release (% of max.)): 50.4%; cytotoxicity at 37.5 µM ([1]; section 1.4, single replicates, 37.5 μM, read-out: LDH release (% of max.)): 67.7%; cytotoxicity at 75 µM ([1]; section 1.4, single replicates, 75 μM, read-out: LDH release (% of max.)): 85.1%; Average (% positive control) ([1]; section 1.4, 18.75 μM, positive control EN22 18.75 μM): 71.489 % positive control; Average (% positive control) ([1]; section 1.4, 37.5 μM, positive control EN22 18.75 μM): 97.102 % positive control; Average (% positive control) ([1]; section 1.4, 75 μM, positive control EN22 18.75 μM): 120.051 % positive control; Average IL-1β ([2]; 18.75 μM): 1.335 ng/mL; IL-1β ([2]; 18.75 μM, individual replicate values): 1.117 ng/mL and 1.248 ng/mL and 1.641 ng/mL; Average IL-1β ([2]; 37.5 μM): 1.594 ng/mL; IL-1β ([2]; 37.5 μM, individual replicate values): 1.916 ng/mL and 1.571 ng/mL and 1.295 ng/mL; Average IL-1β ([2]; 75 μM): 1.217 ng/mL; IL-1β ([2]; 75 μM, individual replicate values): 1.202 ng/mL and 1.130 ng/mL and 1.320 ng/mL; Average (% positive control) ([2]; IL-1β, 18.75 μM, positive control EN22 18.75 μM): 21.124 % positive control; Average (% positive control) ([2]; IL-1β, 37.5 μM, positive control EN22 18.75 μM): 25.211 % positive control; Average (% positive control) ([2]; IL-1β, 75 μM, positive control EN22 18.75 μM): 19.256 % positive control
O=C(Nc1ccccc1)Nc1ccc(N2CCCC2)cc1 [L01.004, 3-phenyl-1-[4-(pyrrol-idin-1-yl)phenyl]urea] | 19.737 % positive control | 1.415 ng/mL | 23.074 % positive control | 16.9% | 15.2% | 1.192 ng/mL and 1.485 ng/mL and 1.567 ng/mL | –
COc1cccc(C)c1NC(=O)NC(c1nc(-c2cccnc2)no1)C(C)C (stereo not drawn) [L01.056, 1-(2-methoxy-6-methyl-phenyl)-3-{2-methyl-1-[3-(pyridin-3-yl)-1,2,4-oxadiazol-5-yl]propyl}-urea] | 0.905 % positive control | 0.065 ng/mL | 13.256 % positive control | 9.7% | 9.34% | 0.060 ng/mL and 0.073 ng/mL and 0.062 ng/mL | –
O=C(Nc1ccccc1)Nc1ccc2ncccc2n1 [JB002, 1-(1,5-naphthyridin-2-yl)-3-phenylurea] | – | – | – | – | – | – | Average (% positive control) ([1]; 20 μM, positive control EN22 20 μM): 13.887 % positive control; Average (% positive control) ([1]; 40 μM, positive control EN22 20 μM): 17.760 % positive control; Average (% positive control) ([1]; 80 μM, positive control EN22 20 μM): 30.084 % positive control; cytotoxicity at 20 µM ([1]; 20 μM, individual replicate values, read-out: LDH release (% of max.)): 7.72%; cytotoxicity at 20 µM ([1]; 20 μM, read-out: Average LDH release (% of max.)): 7.4%; cytotoxicity at 40 µM ([1]; 40 μM, individual replicate values, read-out: LDH release (% of max.)): 9.38%; cytotoxicity at 40 µM ([1]; 40 μM, read-out: Average LDH release (% of max.)): 9.46%; cytotoxicity at 80 µM ([1]; 80 μM, individual replicate values, read-out: LDH release (% of max.)): 14%; cytotoxicity at 80 µM ([1]; 80 μM, read-out: Average LDH release (% of max.)): 16%; Average IL-1β ([2]; 20 μM): 0.045 ng/mL; IL-1β ([2]; 20 μM, individual replicate values): 0.038 ng/mL and 0.050 ng/mL and 0.047 ng/mL; Average IL-1β ([2]; 40 μM): 0.192 ng/mL; IL-1β ([2]; 40 μM, individual replicate values): 0.190 ng/mL and 0.197 ng/mL and 0.1902 ng/mL; Average IL-1β ([2]; 80 μM): 0.503 ng/mL; IL-1β ([2]; 80 μM, individual replicate values): 0.464 ng/mL and 0.505 ng/mL and 0.540 ng/mL; Average (% positive control) ([2]; IL-1β, 20 μM, positive control EN22): 2.292 % positive control; Average (% positive control) ([2]; IL-1β, 40 μM, positive control EN22): 9.827 % positive control; Average (% positive control) ([2]; IL-1β, 80 μM, positive control EN22): 25.697 % positive control
Cc1ccc(N2C(=O)C(=O)N(Cc3nc(-c4ccsc4)no3)C2=O)cc1 [L01.071, 1-(4-methylphenyl)-3-{[3-(thiophen-3-yl)-1,2,4-oxadiazol-5-yl]-methyl}imidazolidine-2,4,5-trione] | 1.598 % positive control | 0.115 ng/mL | 11.833 % positive control | 8.66% | 9.01% | 0.116 ng/mL and 0.097 ng/mL and 0.131 ng/mL | –
O=C(Nc1ccccc1)Nc1cccc(NC(=O)c2ccoc2)c1 [L01.027, N-{3-[(phenylcarbamo-yl)amino]phenyl}furan-3-carboxamide] | 2.451 % positive control | 0.176 ng/mL | 9.387 % positive control | 6.87% | 5.2% | 0.149 ng/mL and 0.197 ng/mL and 0.181 ng/mL | –
